From US20240090503A1, “FUNGICIDAL OXADIAZOLES AND THEIR MIXTURES” (FMC CORPORATION, priority 2020, published 2024)

Legend:
[1] = tested on: Puccinia recondita f. sp. tritici (the causal agent of wheat leaf rust); test: Test C: preventive spray on wheat seedlings, wheat leaf rust, visual disease rating; assay type: in vivo; details: wheat seedlings
In short: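 Wheat seedlings sprayed to run-off with compound in acetone/water (50/50) with 250 ppm PEG400, then inoculated with spores the following day. After 24 h saturated humidity at 20° C. and 6 days in growth chamber at 20° C., disease rated visually as % control relative to untreated controls.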

[2] = tested on: Phakopsora pachyrhizi (the causal agent of Asian soybean rust); test: Test A: preventive spray on soybean seedlings, Asian soybean rust, visual disease rating; assay type: in vivo; details: soybean seedlings
In short: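 Preventive test: soybean seedlings received a run-off spray of compound suspended at the set ppm in 50/50 acetone/water plus 250 ppm PEG400, and one day later a P. pachyrhizi spore inoculum. Visual scoring (0 none to 100 full disease control) followed 24 h saturated incubation and 8 days' growth chamber, both at 22° C.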

[3] = test suspension 10 ppm, 100 = 100% disease control, 0 = no control

Structure (SMILES)	Test C disease control rating ([1]; test suspension 10 ppm) [%]	Test A disease control rating [2, 3] [%]	Test C disease control rating ([1]; test suspension 50 ppm) [%]	Test A disease control rating ([2]; test suspension 50 ppm) [%]
CCCOC(=O)c1cnn(C(C)c2ccc(-c3noc(C(F)(F)F)n3)s2)c1 (stereo not shown) [compound 249]	100	100	–	–
CCCOC(=O)c1cnn(Cc2cc(-c3noc(C(F)(F)F)n3)cs2)c1 [compound 250]	74	100	–	–
CC(C)OC(=O)c1cnn(Cc2cc(-c3noc(C(F)(F)F)n3)cs2)c1 [compound 251]	74	100	–	–
Cn1c(C(F)(F)F)nn(Cc2ccc(-c3noc(C(F)(F)F)n3)cc2)c1=O [compound 267]	–	–	74	99
CCOc1ccccc1OCCOC(=O)c1cnn(Cc2ccc(-c3noc(C(F)(F)F)n3)cc2)c1 [compound 268]	86	100	–	–
CC1(COC(=O)c2cnn(Cc3ccc(-c4noc(C(F)(F)F)n4)cc3)c2)COC1 [compound 269]	100	100	–	–
CC(C)ONC(=O)c1cnn(Cc2ccc(-c3noc(C(F)(F)F)n3)cc2)c1 [compound 270]	100	100	–	–
CCOC(=O)c1cnn(Cc2cc(-c3noc(C(F)(F)F)n3)cs2)c1 [compound 271]	68	99	–	–
CONC(=O)c1cnn(Cc2ccc(-c3noc(C(F)(F)F)n3)cc2)c1 [compound 272]	100	100	–	–
CC(C)(C)ONC(=O)c1cnn(Cc2ccc(-c3noc(C(F)(F)F)n3)cc2)c1 [compound 273]	100	100	–	–
N#CCCCOC(=O)c1cnn(Cc2ccc(-c3noc(C(F)(F)F)n3)cc2)c1 [compound 274]	100	100	–	–
COC(=O)C=CCOC(=O)c1cnn(Cc2ccc(-c3noc(C(F)(F)F)n3)cc2)c1 [compound 275]	100	100	–	–
O=C1c2ccnn2CCN1Cc1ccc(-c2noc(C(F)(F)F)n2)cc1 [compound 297]	93	100	–	–
O=C(OCC#Cc1ccccc1)c1cnn(Cc2ccc(-c3noc(C(F)(F)F)n3)cc2)c1 [compound 299]	86	100	–	–
CC(C#N)OC(=O)c1cnn(Cc2ccc(-c3noc(C(F)(F)F)n3)cc2)c1 (stereo not shown) [compound 300]	9	94	–	–
N#Cc1ccc(COC(=O)c2cnn(Cc3ccc(-c4noc(C(F)(F)F)n4)cc3)c2)cc1 [compound 301]	100	100	–	–
CCOC(=O)c1cn(Cc2ccc(-c3noc(C(F)(F)F)n3)cc2)nn1 [compound 303]	100	100	–	–
CCOC(=O)c1cnn(Cc2ccc(-c3noc(C(F)(F)F)n3)cc2F)c1 [compound 304]	100	100	–	–
CCOC(=O)c1cnn(CCOc2ccc(-c3noc(C(F)(F)F)n3)cc2)c1 [compound 308]	0	0	–	–
COc1ccc(C(O)c2ccc(-c3noc(C(F)(F)F)n3)cc2)cc1 (stereo not shown) [compound 309]	–	–	68	100
CCOC(=O)c1cnn(Cc2cc(OC)c(-c3noc(C(F)(F)F)n3)s2)c1 [compound 336]	0	0	–	–
CCC#CCOC(=O)c1cnn(Cc2ccc(-c3noc(C(F)(F)F)n3)cc2)c1 [compound 339]	98	100	–	–
CN1CCCC1COC(=O)c1cnn(Cc2ccc(-c3noc(C(F)(F)F)n3)cc2)c1 (stereo not shown) [compound 340]	94	100	–	–
